Marks after values point to notes of the source that are not given here.
Experiments:
[1] = system: type 1 human immunodeficiency virus; assay: Antiviral activity on HIV-1 infected human cell model; format: cell-based; conditions: for Cell survival rate, % / Number of cells × 10^3/mL / CPE/syncytia (+): HIV-1 infected cells; for CPE/syncytia (+): four-plus system
[2] = system: human lymphoblastoid cells; assay: Cytotoxicity in human lymphoblastoid cells model; format: cell-based
Lewis carcinoma (3LL) = assay: Transplantable Lewis carcinoma (3LL) in mice; format: in vivo
Method: These studies were carried out at the Institute for Toxicology, St. Petersburg, 2006, according to “Guidelines for the Study of Antitumor Activity of Pharmacological Agents” (“Manual on Experimental (Preclinical) Study of New Pharmacological Agents,” Ministry of Public Health of the Russian Federation, Remedium, Moscow, 2000, pp. 319-325).
The L1210 leukemia, breast adenocarcinoma Ca-755, and Lewis carcinoma (3LL) tumor cell strain were purchased from the Petrov Research Institute for Oncology, the Ministry of Public Health of the Russian Federation (St. Petersburg).
C 57 BL/6J line male mice with transplanted 3LL cells. Mouse ages: 6 to 8 weeks; body weights: 18 to 24 g.
The antitumor effect was ascertained through the following parameters: • ascite accumulation as animal body weight gain; • the lifetime of animals; and • tumor growth. The larger dimension of the tumor (length) and the smaller dimension normal thereto (width) were measured. The tumor volume was calculated, and the inhibition of tumor growth was calculated by a formula. The ascertainment criterion was the day when each individual tumor reached a volume of 500 mm^3.

Substance: Fullerene Poly(Aminocaproic Acid) of Formula C60(H3){NH(CH2)5COO—}3{NH3^+(CH2)5COOH}3 [Agent No. 1]
- Cell survival rate, % ([1]; 0.5 mcg/mL): 18%
- Number of cells × 10^3/mL ([1]; 0.5 mcg/mL): 33 × 10^3/mL
- CPE/syncytia (+) ([1]; 0.5 mcg/mL): 4.0 (+)
- Cell survival rate, % ([1]; 1.0 mcg/mL): 26%
- Number of cells × 10^3/mL ([1]; 1.0 mcg/mL): 495 × 10^3/mL
- CPE/syncytia (+) ([1]; 1.0 mcg/mL): 4.0 (+)
- Cell survival rate, % ([1]; 5.0 mcg/mL): 98%
- Number of cells × 10^3/mL ([1]; 5.0 mcg/mL): 633 × 10^3/mL
- CPE/syncytia (+) ([1]; 5.0 mcg/mL): 0 (+)
- Cell survival rate, % ([1]; 10 mcg/mL): 98%
- Number of cells × 10^3/mL ([1]; 10 mcg/mL): 600 × 10^3/mL
- CPE/syncytia (+) ([1]; 10 mcg/mL): 0 (+)
- EC50 (50% effective concentration) ([1]; type 1 human immunodeficiency virus): 0.9 µg/mL
- Cell survival rate, % ([2]; 0.5 mcg/mL): 95%
- Number of cells × 10^3/mL ([2]; 0.5 mcg/mL): 833 × 10^3/mL
- Cell survival rate, % ([2]; 1.0 mcg/mL): 94%
- Number of cells × 10^3/mL ([2]; 1.0 mcg/mL): 833 × 10^3/mL
- Cell survival rate, % ([2]; 5.0 mcg/mL): 98%
- Number of cells × 10^3/mL ([2]; 5.0 mcg/mL): 799 × 10^3/mL
- Cell survival rate, % ([2]; 10.0 mcg/mL): 94%
- Number of cells × 10^3/mL ([2]; 10.0 mcg/mL): 767 × 10^3/mL
- Cell survival rate, % ([2]; 100 mcg/mL): 95%
- cytotoxic effect on cells ([2]; concentrations of 0.5 to 10 mcg/mL): no cytotoxic effect
- Day when the tumor reaches a volume of 500 mm³ (Lewis carcinoma (3LL); 100 mg/kg): 21.3 ± 1.21 days
- Lifetime, M ± m (Lewis carcinoma (3LL); 100 mg/kg): 55.92 ± 0.98 days
- day post transplantation when the first tumors were observed (Lewis carcinoma (3LL); 100 mg/kg): 7 days
- Number of large (>3 mm) metastases in lungs, M ± m (Lewis carcinoma (3LL); 100 mg/kg (n = 12)): 5.8 ± 1.91
- Number of metastases in lungs, M ± m (Lewis carcinoma (3LL); 100 mg/kg (n = 12)): 53.5 ± 11.23
- Weight of lungs, mg M + m (Lewis carcinoma (3LL); 100 mg/kg (n = 12)): 491.9 ± 63.72 mg
- percent inhibition (average tumor volume) compared to the control group (Lewis carcinoma (3LL); 100 mg/kg, day 10): 71.77%
- percent inhibition (average tumor volume) compared to the control group (Lewis carcinoma (3LL); 100 mg/kg, day 17): 58.5%
- Day when the tumor reaches a volume of 500 mm³ (Lewis carcinoma (3LL); 100 mg/kg, versus control): 27.3%*
- Lifetime, Percent increase (Lewis carcinoma (3LL); 100 mg/kg, versus control): 70.42%*
- Day when the tumor reaches a volume of 500 mm³ (Lewis carcinoma (3LL); 250 mg/kg): 20.5 ± 1.20 days
- Lifetime, M ± m (Lewis carcinoma (3LL); 250 mg/kg): 56.38 ± 0.68 days
- day post transplantation when the first tumors appeared (Lewis carcinoma (3LL); 250 mg/kg): 8 days
- Number of large (>3 mm) metastases in lungs, M ± m (Lewis carcinoma (3LL); 250 mg/kg (n = 13)): 5.7 ± 1.54
- Number of metastases in lungs, M ± m (Lewis carcinoma (3LL); 250 mg/kg (n = 13)): 55.8 ± 11.60
- Weight of lungs, mg M + m (Lewis carcinoma (3LL); 250 mg/kg (n = 13)): 505.4 ± 68.82 mg
- percent inhibition (average tumor volume) compared to the control group (Lewis carcinoma (3LL); 250 mg/kg, day 10): 84.37%
- percent inhibition (average tumor volume) compared to the control group (Lewis carcinoma (3LL); 250 mg/kg, day 17): 54.2%
- Day when the tumor reaches a volume of 500 mm³ (Lewis carcinoma (3LL); 250 mg/kg, versus control): 22.9%*
- Lifetime, Percent increase (Lewis carcinoma (3LL); 250 mg/kg, versus control): 71.85%*
- increase of the average lifetime against the control group (Lewis carcinoma (3LL); both doses): approximately 70%
